{"source": "paper PMC6458983", "about": "(Cancer Chemotherapy and Pharmacology, 2019)", "key": {"[1]": {"system": "Japanese patients with NSCLC", "assay": "Multivariate logistic regression of ILD with gefitinib exposure and other risk factors", "assay_type": "in vivo", "conditions": "for OR estimate (95% CI) for acute ILD: Age (≥55 vs <55 years): gefitinib-treated patients", "procedure": "Patients with and without ILD, in whom pharmacokinetic measurements were available, were included in this analysis. […] A multivariate logistic regression model was used in this analysis; the analysis was performed using SAS version 9.3. […] In addition, the interaction of smoking history and normal lung coverage, and the interaction of the severity of pre-existing ILD and normal lung coverage were also studied. In addition, pharmacokinetic exposure parameters were divided into four quartiles (see “Results”) and investigated as risk factors. For association with ILD risk, the mid-1, mid-2, and high-exposure groups were compared with the low-exposure group."}, "CYP3A4": {"system": "CYP3A4", "conditions": "in vitro and in vivo studies; cited from earlier work"}, "[2]": {"assay": "Population pharmacokinetic analysis of gefitinib plasma concentrations (NONMEM, one-compartment model)", "assay_type": "in vivo, Japanese patients with NSCLC", "procedure": "Six blood samples were taken from each patient at 1–3, 3–8, and 24 h after first treatment dosing (Day 1) and at steady state (Days 10–15). In addition, blood samples were taken from each patient with ILD, if possible, when ILD developed. […] In total, data for 1891 plasma concentrations taken from 336 patients were used for population pharmacokinetic modeling.\n(§1) When estimating the exposure at first dosing and at steady state, time-dependent pharmacokinetics were not assumed. Thus, both exposures at first dosing and steady state can be theoretically derived if at least one plasma concentration at either first dosing or steady state is available. Individual exposures were predicted based on patients’ dosing history, assuming steady state at 144 h after the first dosing. […] Serum concentration of AGP were likewise determined at first dosing and at steady state.\nThe population pharmacokinetic analysis was performed using the non-linear mixed-effect modeling (NONMEM) program version V level 1.1 with the PREDPP library and the NM-TRAN pre-processor (GloboMax LLC, Hanover, MD, USA). Full details of the population pharmacokinetic model development and analysis are described in the Online Resource.\nThe population pharmacokinetic analysis was performed using the NONMEM program version V level 1.1 with the PREDPP library and the NM-TRAN pre-processor (GloboMax LLC, Hanover, MD).\nFollowing preliminary modeling to build a base model, log-transformed plasma concentrations were used for the analysis, and a one-compartment model after first-order absorption with lag-time was selected as the structural model. The first-order method was adopted as an approximation in integral of marginal likelihood. The inter-individual variability on pharmacokinetic parameters was described using an exponential error model, and the intra-individual variability on log-transformed plasma concentration was described using an additive error model.\nThe covariate model was developed based on the forward addition method and the backward deletion method. Continuous covariates such as body weight, age, sex, α1-acid glycoprotein (AGP), serum albumin, total protein, aspartate aminotransferase, alanine aminotransferase, alkaline phosphatase, total bilirubin, and creatinine clearance were tested using a power model centered on the mean value.\nCategorical covariates included were age group (<65 years or ≥65 years), concomitant use of cytochrome P450 3A4 (CYP3A4) inducers, concomitant use of CYP3A4 inhibitors, and concomitant use of proton pump inhibitors and/or H2 antagonists. In addition, interstitial lung disease (ILD) status (i.e. “patients with ILD” vs “patients without ILD”) and ILD period (i.e. “at times other than ILD development” vs “at the time of ILD development”) were tested using a productive multiplicative model with the discrete variable (0 or 1).\nχ^2 tests with one degree of freedom based on the objective function value (OFV) in NONMEM, which corresponds to -2-fold of log-likelihood, were used for developing the covariate model, and the adopted statistically significant levels were p=0.05 (ΔOFV=3.84) and p=0.001 (ΔOFV=10.83) when a covariate was included and excluded from the pharmacokinetic model, respectively.\nGoodness-of-fit plots were used for diagnosis of the final model. The robustness of the final model was evaluated by a randomized non-stratified bootstrap technique with 200 resampling datasets, and model predictability was examined by visual predictive check."}, "[3]": {"assay": "Predicted gefitinib exposure (empirical Bayesian estimates), inter- and intra-patient comparison with/without ILD", "assay_type": "in vivo, Japanese patients with NSCLC", "conditions": "human, plasma, oral, 250 mg", "procedure": "as §1\nAUC0–24 and Cmax were chosen as exposure metrics."}, "[4]": {"conditions": "cited from earlier work"}, "[5]": {"conditions": "Analysis 3 (PK parameter Cmax, single dose)"}, "[6]": {"conditions": "Analysis 3, gefitinib exposure after a single dose"}, "[7]": {"conditions": "Analysis 4 (PK parameter Cmax,ss)"}, "[8]": {"conditions": "Analysis 4, gefitinib exposure at steady state"}}, "note": "Where two headings read alike, the source gives them in different places. Marks after values point to notes of the source that are not given here."}
{"smiles": "COc1cc2ncnc(Nc3ccc(F)c(Cl)c3)c2cc1OCCCN1CCOCC1", "note": "[gefitinib]", "values": [{"measurement": "OR estimate (95% CI) for acute ILD: Duration of NSCLC ≥1 vs <0.5 years", "setting": "[1]; [5]", "value": "0.32 (0.12–0.83)"}, {"measurement": "OR estimate (95% CI) for acute ILD: Interaction of pre-existing IP and normal lung coverage", "setting": "[1]; [5]", "value": "0.51 (0.03–9.56)"}, {"measurement": "OR estimate (95% CI) for acute ILD: Interaction of smoking history and normal lung coverage", "setting": "[1]; [5]", "value": "0.56 (0.08–3.96)"}, {"measurement": "OR estimate (95% CI) for acute ILD: Normal lung coverage (10%–50% vs 60%–100%)", "setting": "[1]; [5]", "value": "3.56 (0.64–19.85)"}, {"measurement": "OR estimate (95% CI) for acute ILD: Pre-existing IP (yes vs no)", "setting": "[1]; [5]", "value": "3.56 (0.33–38.74)"}, {"measurement": "OR estimate (95% CI) for acute ILD: WHO performance status 1 vs 0", "setting": "[1]; [5]", "value": "0.62 (0.21–1.8)"}, {"measurement": "OR estimate (95% CI) for acute ILD: WHO performance status 2–3 vs 0", "setting": "[1]; [5]", "value": "1.89 (0.52–6.85)"}, {"measurement": "OR estimate (95% CI) for acute ILD: Age (≥55 vs <55 years)", "setting": "[1]; [5]", "value": "2.13 (0.56–8.04)"}, {"measurement": "OR estimate (95% CI) for acute ILD: Cmax Quartile 2 vs Quartile 1", "setting": "[1]; [6]", "value": "0.51 (0.14–1.8)"}, {"measurement": "OR estimate (95% CI) for acute ILD: Cmax Quartile 3 vs Quartile 1", "setting": "[1]; [6]", "value": "0.5 (0.14–1.72)"}, {"measurement": "OR estimate (95% CI) for acute ILD: Cmax Quartile 4 vs Quartile 1", "setting": "[1]; [6]", "value": "3.03 (1–9.17)"}, {"measurement": "OR estimate (95% CI) for acute ILD: Duration of NSCLC ≥1 vs <0.5 years", "setting": "[1]; [7]", "value": "0.59 (0.2–1.75)"}, {"measurement": "OR estimate (95% CI) for acute ILD: Interaction of pre-existing IP and normal lung coverage", "setting": "[1]; [7]", "value": "0.18 (0.01–4.98)"}, {"measurement": "OR estimate (95% CI) for acute ILD: Interaction of smoking history and normal lung coverage", "setting": "[1]; [7]", "value": "0.17 (0.02–1.89)"}, {"measurement": "OR estimate (95% CI) for acute ILD: Pre-existing IP (yes vs no)", "setting": "[1]; [7]", "value": "5.21 (0.39–70.35)"}, {"measurement": "OR estimate (95% CI) for acute ILD: WHO performance status 1 vs 0", "setting": "[1]; [7]", "value": "0.57 (0.19–1.68)"}, {"measurement": "OR estimate (95% CI) for acute ILD: WHO performance status 2–3 vs 0", "setting": "[1]; [7]", "value": "1.34 (0.33–5.39)"}, {"measurement": "OR estimate (95% CI) for acute ILD: Age (≥55 vs <55 years)", "setting": "[1]; [7]", "value": "1.69 (0.4–7.17)"}, {"measurement": "OR estimate (95% CI) for acute ILD: Normal lung coverage (10%–50% vs 60%–100%)", "setting": "[1]; Analysis 4 (PK parameter Cmax,ss), p<0.05", "value": "9.4 (1.11–79.48)*"}, {"measurement": "OR estimate (95% CI) for acute ILD: Cmax,ss Quartile 2 vs Quartile 1", "setting": "[1]; [8]", "value": "0.69 (0.16–3.02)"}, {"measurement": "OR estimate (95% CI) for acute ILD: Cmax,ss Quartile 3 vs Quartile 1", "setting": "[1]; [8]", "value": "1.72 (0.47–6.27)"}, {"measurement": "OR estimate (95% CI) for acute ILD: Cmax,ss Quartile 4 vs Quartile 1", "setting": "[1]; [8]", "value": "1.07 (0.27–4.29)"}, {"measurement": "enzyme involved in the metabolic clearance", "setting": "CYP3A4", "value": "CYP3A4 is the major enzyme"}, {"measurement": "decrease of CL/F", "setting": "[2]; at the time of ILD development, population pharmacokinetic analysis", "value": 25.7, "unit": "%"}, {"measurement": "θ3", "setting": "[2]; base in CL/F equation (AGE ≥ 65 term, CL/F declined in elderly)", "value": 0.759}, {"measurement": "θ6", "setting": "[2]; base in CL/F equation (PERI, at the time of ILD diagnosis)", "value": 0.743}, {"measurement": "θ5", "setting": "[2]; exponent in CL/F equation (body weight term)", "value": 0.503}, {"measurement": "θ1", "setting": "[2]; typical value term of the CL/F equation (equation is drawing C00001), population estimate", "value": 28.6}, {"measurement": "θ7", "setting": "[2]; typical value term of the V/F equation (equation is drawing C00002), population estimate", "value": 1540}, {"measurement": "Cmax", "setting": "[3]; after the first dosing, patients with ILD, value printed in box plot Fig. 1a, read-out: Cmax", "value": 214, "unit": "ng/mL"}, {"measurement": "Cmax", "setting": "[3]; after the first dosing, patients without ILD, value printed in box plot Fig. 1a, read-out: Cmax", "value": 157, "unit": "ng/mL"}, {"measurement": "AUC(0-t)", "setting": "[3]; after the first dosing, patients with ILD, Fig. 1b, read-out: AUC0-24", "value": 3970, "unit": "ng·h/mL"}, {"measurement": "AUC(0-t)", "setting": "[3]; after the first dosing, patients without ILD, Fig. 1b, read-out: AUC0-24", "value": 2990, "unit": "ng·h/mL"}, {"measurement": "Cmax", "setting": "[3]; intra-patient (n = 19), at the time of ILD development, Fig. 2a, read-out: Cmax", "value": 679, "unit": "ng/mL"}, {"measurement": "AUC(0-t)", "setting": "[3]; intra-patient (n = 19), at the time of ILD development, Fig. 2b, read-out: AUC0-24", "value": 13600, "unit": "ng·h/mL"}, {"measurement": "Cmax", "setting": "[3]; intra-patient (n = 19), at time other than ILD development (steady state), Fig. 2a, read-out: Cmax", "value": 517, "unit": "ng/mL"}, {"measurement": "AUC(0-t)", "setting": "[3]; intra-patient (n = 19), at time other than ILD development (steady state), Fig. 2b, read-out: AUC0-24", "value": 10100, "unit": "ng·h/mL"}, {"measurement": "Cmax", "setting": "[3]; steady state, 250 mg once daily, patients without ILD, Fig. 1d, read-out: Cmax,ss", "value": 434, "unit": "ng/mL"}, {"measurement": "AUC(0-t)", "setting": "[3]; steady state, patients with ILD, Fig. 1e, read-out: AUC0-24,SS", "value": 10600, "unit": "ng·h/mL"}, {"measurement": "Cmax", "setting": "[3]; steady state, patients with ILD, Fig. 1d, read-out: Cmax,ss", "value": 517, "unit": "ng/mL"}, {"measurement": "AUC(0-t)", "setting": "[3]; steady state, patients without ILD, Fig. 1e, read-out: AUC0-24,SS", "value": 8830, "unit": "ng·h/mL"}, {"measurement": "increase of AUC of gefitinib", "setting": "[4]; gefitinib 250 mg in the presence of itraconazole", "value": 78, "unit": "%"}, {"measurement": "increase of AUC of gefitinib", "setting": "[4]; gefitinib 500 mg in the presence of itraconazole", "value": 61, "unit": "%"}]}
